Data taken from US7678384B2, “Vinylaminopyrazole derivatives as pesticides” (Merial Limited, priority 2004, dated 2010).

What was measured:
Type in all cases: in vivo
[1] = test system: Ctenocephalides felis (Cat flea); assay: Method A: screening method to test systemicity against Ctenocephalides felis (artificial dog test, treated bovine blood); conditions: test concentration 1 ppm in bovine blood; 10 adults; assessment at 24 and 48 hours
Protocol: METHOD A: Screening method to test systemicity of compounds against Ctenocephalides felis (Cat flea)
A test container was filled with 10 adults of Ctenocephalides felis. A glass cylinder was closed on one end with parafilm and placed on top of the test container. The test compound solution was then pipetted into bovine blood and added to the glass cylinder. The treated Ctenocephalides felis were held in this artificial dog test (blood 37° C., 40-60% relative humidity; Ctenocephalides felis 20-22° C., 40-60% relative humidity) and assessment performed at 24 and 48 hours after application.

[2] = test system: Diabrotica undecimpunctata (southern corn rootworm); assay: Method B: Diabrotica undecimpunctata (southern corn rootworm) screen; conditions: concentration 10 ppm; eggs on filter paper with maize seed; assessed 6 days after application
Source text: METHOD B: Diabrotica undecimpunctata (southern corn rootworm) screen
Two days before application, seeds of maize were soaked in water under warm conditions to elicit fast germination. One day before application, eggs of Diabrotica undecimpunctata were transferred to one half of a Japanese filter paper placed in a plastic petri dish. Afterwards, a sprouted maize seed was placed on a moistened pad beside the filter paper. Three drops of 200 microlitres of test compound solution were carefully pipetted onto the egg. The remainder of the solution was placed on the maize and then the Petri dish was closed. The treated eggs in the Petri dishes were held in a climate chamber for 6 days. The compound efficacy (percentage of dead eggs and/or larvae in comparison to untreated control) was assessed 6 days after application using a binocular microscope. Compound number 1-1 gave at least 60% control with the concentration at 10 ppm.

Nilaparvata lugens = assay: Method C: Rice leafhopper screen; conditions: foliar, 144 h, read-out: control of Nilaparvata lugens (mortality among leafhopper larvae)
Protocol: METHOD C: Rice leafhopper screen
The leaves of rice plants are dipped for 5 seconds into an aqueous solution of the formulated preparation to be examined. After the solution has run off, the rice plants are placed in a Petri dish and populated with about 20 larvae (L3 stage) of the rice leafhopper species Nilaparvata lugens. The Petri dish is closed and then stored in a climatized chamber (16 hours of light/day, 25° C., 40-60% relative atmospheric humidity). After 6 days storage, the mortality among the leafhopper larvae is determined. Compound number 1-1 gave at least 60% control of Nilaparvata lugens with the concentration of 10 ppm.

[3] = test system: Rhipicephalus sanguineus (Brown dog tick); assay: Method D: screening method to test contact activity against Rhipicephalus sanguineus; conditions: test concentration 10 ppm; filter paper contact; L1 larvae; 24 hours after application
Protocol: METHOD D: Screening method to test contact activity against Rhipicephalus sanguineus (Brown dog tick)
Solutions of the test compounds were dropped onto filter paper, dried and the filter paper placed into test tubes and infested with 20-30 larvae (L1) of Rhipicephalus sanguineus and the tubes closed with a clip. The treated Rhipicephalus sanguineus were held in a climate chamber (25° C., 90% RH) and the percentage efficacy assessed 24 hours after application in comparison with the untreated control.

[4] = test system: tobacco budworm (Heliothis virescens); assay: Method E: Heliothis virescens screen; conditions: concentration 100 ppm; egg dip; after 6 days
Protocol: METHOD E: Heliothis Virescens Screen
A Petri dish whose bottom is covered with filter paper and which contains about 5 ml of culture medium is prepared. Pieces of filter paper with about 30, 24-hour-old eggs of the tobacco budworm (Heliothis virescens) are dipped into an aqueous solution of the formulated preparation to be examined for about 5 seconds and subsequently placed into the Petri dish. A further 200 μl of the aqueous solution are dropped over the culture medium. The Petri dish is closed and then kept at about 25° C. in a climatized chamber. After 6 days storage, the effect of the preparation on the eggs and the larvae which may have hatched from these is determined. Compound number 1-1 gave at least 50% control of tobacco budworm with the concentration at 100 ppm.

[5] = test system: Frankliniella occidentalis; assay: Method F: Thrip (Frankliniella occidentalis) screen; conditions: concentration 100 ppm; French bean leaf dip; mixed population; after 7 days
Protocol: METHOD F: Thrip (Frankliniella occidentalis) Screen
French bean plants are cut at the base of the stem and transferred into bottles filled with tap water. The leaves are then dipped for 5 seconds into an aqueous solution of the formulated preparation to be examined. After the solution has run off, the leaves are infested with 20-30 individuals of a mixed population of flower thrips (Frankliniella occidentalis) and then stored in a controlled-environment cabinet at approx. 25° C. After 7 days storage, the effect of the preparation on the thrips is determined. Compound number 1-1 gave at least 70% control of Frankliniella occidentalis at the concentration of 100 ppm.

Row | Structure (SMILES) | control of Ctenocephalides felis [1] | control (percentage of dead eggs and/or larvae in comparison to untreated control) [2] | mortality at 10 ppm (Nilaparvata lugens) | control (percentage efficacy in comparison with untreated control) [3] | control of tobacco budworm (effect on eggs and larvae) [4] | control of Frankliniella occidentalis [5]
1 | CN(CCI)c1c(S(=O)(=O)C(F)(F)F)c(C#N)nn1-c1c(Cl)cc(C(F)(F)F)cc1Cl [Intermediate Example 2, 1-[2,6-dichloro-4-(trifluoromethyl)phenyl]-5-[(2-iodoethy)(methyl)amino]-4-[(trifluoromethyl)sulfonyl]-1H-pyrazole-3-carbonitrile] | at least 70% |  |  |  |  | 
2 | C=CN(C)c1c(S(=O)(=O)C(F)(F)F)c(C#N)nn1-c1c(Cl)cc(C(F)(F)F)cc1Cl [Compound 1-1, 1-[2,6-dichloro-4-(trifluoromethyl)phenyl]-5-[methyl(vinyl)amino]-4-[(trifluoromethyl)sulfonyl]-1H-pyrazole-3-carbonitrile] | at least 50% | at least 60% | ≥ 60% | at least 50% | at least 50% | at least 70%
